According to paper PMC10574094, “Discovery of a SHP2 Degrader with In Vivo Anti-Tumor Activity” (Molecules, 2023):

Tests used:
CD45 = CD45 (Homo sapiens, UniProt P08575); assay: PTP inhibition assay (pNPP); assay type: biochemical
Method: (§1) PTP activity was assayed using p-nitrophenyl phosphate (pNPP) as a substrate in DMG buffer (50 mM DMG, pH 7.0, 1 mM EDTA, 150 mM NaCl, 2 mM DTT, 0.1 mg/mL BSA) at 25 °C. The assays were performed in 96-well plates. To determine the IC50 values, the reaction was initiated by the addition of enzyme (final concentration = 10 nM) to a reaction mixture (0.2 mL) containing pNPP (at a final concentration close to the Kms of tested enzymes, in specific: 0.05 mM for CDC-14A; 0.5 mM for FAP-1; 2 mM for TC-PTP, PTP1B, STEP, LWM-PTP, and PTPα; 3 mM for SHP1; 4 mM for Laforin; 5 mM for LYP, CD45, and VHR; 6 mM for PTP-MEG2 and HePTP) with various concentrations of inhibitors. The reaction rate was measured using a SpectraMax Plus 384 Microplate Spectrophotometer (Molecular Devices, San Jose, CA, USA). Data were fitted using the SigmaPlot Enzyme Kinetics Module (Systat Software, Inc., San Jose, CA, USA).

CDC-14A = CDC-14A (Homo sapiens, UniProt Q9UNH5); assay: PTP inhibition assay (pNPP); assay type: biochemical
Method: as §1

FAP-1 = FAP-1 (Homo sapiens, UniProt Q12923); assay: PTP inhibition assay (pNPP); assay type: biochemical
Method: as §1

HePTP = HePTP (Homo sapiens, UniProt P35236); assay: PTP inhibition assay (pNPP); assay type: biochemical
Chain of HePTP (P35236 whole entry, species assumed): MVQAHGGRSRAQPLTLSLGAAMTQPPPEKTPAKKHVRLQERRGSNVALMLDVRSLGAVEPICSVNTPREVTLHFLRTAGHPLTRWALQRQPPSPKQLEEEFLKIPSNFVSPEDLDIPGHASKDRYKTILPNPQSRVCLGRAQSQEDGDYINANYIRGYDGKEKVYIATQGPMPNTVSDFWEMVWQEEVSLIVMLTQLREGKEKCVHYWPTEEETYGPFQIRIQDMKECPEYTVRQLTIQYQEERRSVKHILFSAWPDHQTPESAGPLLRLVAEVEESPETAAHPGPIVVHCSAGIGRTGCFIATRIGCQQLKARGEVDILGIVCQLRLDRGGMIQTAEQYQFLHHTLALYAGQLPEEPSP
Method: as §1

LMW-PTP = LMW-PTP (Homo sapiens, UniProt P24666); assay: PTP inhibition assay (pNPP); assay type: biochemical
Chain of LMW-PTP (P24666 whole entry, species assumed): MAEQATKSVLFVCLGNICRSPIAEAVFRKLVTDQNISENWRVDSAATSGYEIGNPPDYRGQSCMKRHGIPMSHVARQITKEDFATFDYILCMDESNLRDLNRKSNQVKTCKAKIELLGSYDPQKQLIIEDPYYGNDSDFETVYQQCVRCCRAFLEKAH
Method: as §1

LYP = LYP (Homo sapiens, UniProt Q9Y2R2); assay: PTP inhibition assay (pNPP); assay type: biochemical
Chain of LYP (Q9Y2R2 whole entry, species assumed): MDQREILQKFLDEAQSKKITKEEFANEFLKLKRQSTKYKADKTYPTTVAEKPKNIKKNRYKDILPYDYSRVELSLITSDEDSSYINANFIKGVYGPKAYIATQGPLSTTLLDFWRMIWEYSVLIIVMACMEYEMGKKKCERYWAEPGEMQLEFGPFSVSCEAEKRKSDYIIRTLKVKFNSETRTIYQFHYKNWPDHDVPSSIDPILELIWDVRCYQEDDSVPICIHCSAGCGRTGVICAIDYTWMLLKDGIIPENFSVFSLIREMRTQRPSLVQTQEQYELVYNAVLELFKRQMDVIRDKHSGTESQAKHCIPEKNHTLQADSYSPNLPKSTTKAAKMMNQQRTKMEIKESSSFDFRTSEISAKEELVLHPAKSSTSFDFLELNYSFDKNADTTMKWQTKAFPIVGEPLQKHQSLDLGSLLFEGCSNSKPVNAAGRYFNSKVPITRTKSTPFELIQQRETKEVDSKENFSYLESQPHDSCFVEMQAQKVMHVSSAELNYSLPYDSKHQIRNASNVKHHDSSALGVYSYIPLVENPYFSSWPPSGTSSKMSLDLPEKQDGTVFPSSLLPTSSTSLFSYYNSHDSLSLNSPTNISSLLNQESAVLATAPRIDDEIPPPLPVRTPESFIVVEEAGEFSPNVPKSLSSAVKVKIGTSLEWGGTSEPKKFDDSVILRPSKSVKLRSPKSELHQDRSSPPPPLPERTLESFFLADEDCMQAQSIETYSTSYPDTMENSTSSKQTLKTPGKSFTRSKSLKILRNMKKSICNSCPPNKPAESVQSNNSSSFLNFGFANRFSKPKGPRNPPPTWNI
Method: as §1

Laforin = Laforin (Homo sapiens, UniProt O95278); assay: PTP inhibition assay (pNPP); assay type: biochemical
Chain of Laforin (O95278 whole entry, species assumed): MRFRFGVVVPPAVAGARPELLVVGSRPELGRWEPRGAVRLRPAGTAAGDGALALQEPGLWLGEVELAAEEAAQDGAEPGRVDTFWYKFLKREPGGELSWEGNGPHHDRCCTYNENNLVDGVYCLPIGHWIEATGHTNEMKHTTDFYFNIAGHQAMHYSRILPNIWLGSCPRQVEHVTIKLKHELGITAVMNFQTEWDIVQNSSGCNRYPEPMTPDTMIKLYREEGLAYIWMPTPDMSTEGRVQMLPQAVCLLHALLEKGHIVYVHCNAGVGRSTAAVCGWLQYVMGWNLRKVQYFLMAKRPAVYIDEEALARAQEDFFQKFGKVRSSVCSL
Method: as §1

PTP-MEG2 = PTP-MEG2 (Homo sapiens, UniProt P43378); assay: PTP inhibition assay (pNPP); assay type: biochemical
Method: as §1

PTP-α = PTP-α (Homo sapiens, UniProt P18433); assay: PTP inhibition assay (pNPP); assay type: biochemical
Method: as §1

PTP1B = PTP1B (Homo sapiens, UniProt P18031); assay: PTP inhibition assay (pNPP); assay type: biochemical
Method: as §1

SHP1 = SHP1 (Homo sapiens, UniProt P29350); assay: PTP inhibition assay (pNPP); assay type: biochemical
Chain of SHP1 (P29350 whole entry): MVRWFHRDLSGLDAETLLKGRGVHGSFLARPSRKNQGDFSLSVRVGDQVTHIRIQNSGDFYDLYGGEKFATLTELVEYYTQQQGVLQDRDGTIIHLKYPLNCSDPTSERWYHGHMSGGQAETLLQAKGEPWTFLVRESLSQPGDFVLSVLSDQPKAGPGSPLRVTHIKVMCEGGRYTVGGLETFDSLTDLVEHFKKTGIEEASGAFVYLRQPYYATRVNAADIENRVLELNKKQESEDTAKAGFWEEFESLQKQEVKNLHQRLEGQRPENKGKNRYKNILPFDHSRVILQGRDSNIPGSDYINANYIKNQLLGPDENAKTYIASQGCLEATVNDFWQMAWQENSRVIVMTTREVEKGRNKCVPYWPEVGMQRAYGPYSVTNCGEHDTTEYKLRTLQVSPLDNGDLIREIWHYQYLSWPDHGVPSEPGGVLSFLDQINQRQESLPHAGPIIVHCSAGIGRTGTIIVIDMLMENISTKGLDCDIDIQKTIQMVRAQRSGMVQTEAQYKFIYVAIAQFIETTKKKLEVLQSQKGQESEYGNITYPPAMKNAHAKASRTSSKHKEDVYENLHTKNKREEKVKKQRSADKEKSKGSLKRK
Method: as §1

STEP = STEP (Homo sapiens, UniProt P54829); assay: PTP inhibition assay (pNPP); assay type: biochemical
Chain of STEP (P54829 whole entry, species assumed): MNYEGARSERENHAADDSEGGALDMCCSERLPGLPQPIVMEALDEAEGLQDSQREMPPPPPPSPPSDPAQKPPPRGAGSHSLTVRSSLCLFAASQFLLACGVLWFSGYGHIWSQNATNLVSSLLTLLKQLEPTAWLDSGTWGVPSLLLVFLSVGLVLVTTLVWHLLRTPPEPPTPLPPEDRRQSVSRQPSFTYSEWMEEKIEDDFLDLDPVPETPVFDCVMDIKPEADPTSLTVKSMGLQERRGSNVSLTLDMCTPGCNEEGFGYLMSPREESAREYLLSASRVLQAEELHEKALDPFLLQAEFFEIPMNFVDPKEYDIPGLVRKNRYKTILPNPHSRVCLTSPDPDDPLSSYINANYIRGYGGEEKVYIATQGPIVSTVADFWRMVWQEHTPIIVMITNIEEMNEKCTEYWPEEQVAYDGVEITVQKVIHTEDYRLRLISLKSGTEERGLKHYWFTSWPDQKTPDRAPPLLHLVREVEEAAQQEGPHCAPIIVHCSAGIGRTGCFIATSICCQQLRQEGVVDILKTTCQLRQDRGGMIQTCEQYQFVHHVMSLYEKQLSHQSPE
Method: as §1

TC-PTP = TC-PTP (Homo sapiens, UniProt P17706); assay: PTP inhibition assay (pNPP); assay type: biochemical
Chain of TC-PTP (P17706 whole entry, species assumed): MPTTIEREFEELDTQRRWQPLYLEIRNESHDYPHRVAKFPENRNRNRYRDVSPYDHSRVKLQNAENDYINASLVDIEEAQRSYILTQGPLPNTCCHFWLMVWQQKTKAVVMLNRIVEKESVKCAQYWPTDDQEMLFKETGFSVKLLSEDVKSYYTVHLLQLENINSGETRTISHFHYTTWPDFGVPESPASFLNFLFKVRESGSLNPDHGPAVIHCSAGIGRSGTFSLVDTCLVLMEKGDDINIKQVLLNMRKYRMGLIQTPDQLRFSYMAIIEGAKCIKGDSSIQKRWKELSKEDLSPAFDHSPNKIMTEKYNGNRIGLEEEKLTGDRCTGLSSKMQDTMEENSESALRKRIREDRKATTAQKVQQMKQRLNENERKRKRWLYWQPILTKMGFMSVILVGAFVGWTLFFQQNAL
Method: as §1

VHR = VHR (Homo sapiens, UniProt P51452); assay: PTP inhibition assay (pNPP); assay type: biochemical
Chain of VHR (P51452 whole entry, species assumed): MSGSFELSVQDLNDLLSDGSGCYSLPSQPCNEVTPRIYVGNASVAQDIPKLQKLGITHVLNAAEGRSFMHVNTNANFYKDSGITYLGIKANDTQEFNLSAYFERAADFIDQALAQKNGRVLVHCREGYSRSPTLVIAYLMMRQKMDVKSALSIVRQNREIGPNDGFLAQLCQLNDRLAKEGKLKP
Method: as §1

KYSE-520 xenograft = KYSE-520 xenograft tumor growth; assay type: in vivo, mice; settings: 18 days
Method: Experiments on mice were carried out in accordance with the regulations of the Institutional Animal Care and Use Committees at Purdue University. All mice were housed under pathogen-free conditions in the animal facility and received autoclaved water and food. Eight to ten weeks-old Nude mice were used in the study.
For the xenograft tumor study, KYSE-520 cells were suspended in PBS and a total of 3 × 10^6 cells (100 μL) were subcutaneously implanted into both the left and right flank using a 27-gauge needle. Tumor volume was calculated using the formula V = (W^2 × L)/2 for caliper measurements. Once the tumor volume reaches 200 mm^3, daily intraperitoneal injection of either control, 25 mg/kg or 50 mg/kg of compound P9 was performed. Mice were sacrificed after injection for 18 days, and tumors were collected for biochemical analysis.

Chain of CD45 (P08575 26-1306, species assumed): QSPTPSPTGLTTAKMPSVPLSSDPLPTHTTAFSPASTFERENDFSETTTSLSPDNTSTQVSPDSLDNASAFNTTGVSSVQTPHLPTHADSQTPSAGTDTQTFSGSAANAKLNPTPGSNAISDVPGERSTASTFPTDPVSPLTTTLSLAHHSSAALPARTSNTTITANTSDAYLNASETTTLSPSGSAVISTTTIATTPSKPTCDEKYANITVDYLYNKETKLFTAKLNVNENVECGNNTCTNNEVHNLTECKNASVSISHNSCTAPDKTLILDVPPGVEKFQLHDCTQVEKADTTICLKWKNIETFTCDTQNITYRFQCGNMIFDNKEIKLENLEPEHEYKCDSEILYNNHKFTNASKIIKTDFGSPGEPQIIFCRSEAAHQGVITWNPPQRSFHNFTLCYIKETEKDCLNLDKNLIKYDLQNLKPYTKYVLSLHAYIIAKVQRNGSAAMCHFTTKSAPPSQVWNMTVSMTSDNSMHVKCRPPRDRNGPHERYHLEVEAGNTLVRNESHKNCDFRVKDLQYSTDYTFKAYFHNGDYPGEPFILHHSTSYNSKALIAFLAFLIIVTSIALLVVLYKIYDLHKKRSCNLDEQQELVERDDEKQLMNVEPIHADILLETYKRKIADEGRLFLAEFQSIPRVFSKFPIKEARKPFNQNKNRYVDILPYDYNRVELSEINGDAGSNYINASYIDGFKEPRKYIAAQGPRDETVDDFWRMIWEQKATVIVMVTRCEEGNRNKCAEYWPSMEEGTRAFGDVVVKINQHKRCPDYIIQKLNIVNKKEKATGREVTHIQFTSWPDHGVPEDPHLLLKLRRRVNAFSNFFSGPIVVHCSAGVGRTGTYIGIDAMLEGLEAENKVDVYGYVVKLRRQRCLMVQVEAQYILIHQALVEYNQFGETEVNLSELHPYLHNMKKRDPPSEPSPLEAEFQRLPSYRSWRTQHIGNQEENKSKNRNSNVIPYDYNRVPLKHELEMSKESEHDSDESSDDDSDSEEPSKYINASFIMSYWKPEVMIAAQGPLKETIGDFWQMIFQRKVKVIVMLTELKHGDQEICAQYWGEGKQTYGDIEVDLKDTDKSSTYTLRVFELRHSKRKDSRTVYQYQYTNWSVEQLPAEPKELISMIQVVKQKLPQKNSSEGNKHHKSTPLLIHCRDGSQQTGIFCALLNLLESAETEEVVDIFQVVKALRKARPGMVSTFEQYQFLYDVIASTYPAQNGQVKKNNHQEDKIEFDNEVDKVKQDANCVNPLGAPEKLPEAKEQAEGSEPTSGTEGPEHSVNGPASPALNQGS

`Cc1ncsc1-c1ccc([C@H](C)NC(=O)[C@@H]2C[C@@H](O)CN2C(=O)[C@@H](NC(=O)CCCCCCCCCN2CCN(C(=O)CCCCCC3(CN)CCN(c4cnc(Sc5cccc(Cl)c5Cl)c(N)n4)CC3)CC2)C(C)(C)C)cc1` [P9, (2S,4R)-1-((S)-2-(10-(4-(6-(1-(6-amino-5-((2,3-dichlorophenyl)thio)pyrazin-2-yl)-4-(aminomethyl)piperidin-4-yl)hexanoyl)piperazin-1-yl)decanamido)-3,3-dimethylbutanoyl)-4-hydroxy-N-((S)-1-(4-(4-methylthiazol-5-yl)phenyl)ethyl)pyrrolidine-2-carboxamide] was tested, and the “Fold selectivity CD45” value (CD45; over SHP2) was greater than 105, the IC50 (CD45; pNPP 5 mM) was greater than 10 µM and the “Fold selectivity CDC-14A” value (CDC-14A; over SHP2) was greater than 105. For the same compound, the IC50 (CDC-14A; pNPP 0.05 mM) was greater than 10 µM, the “Fold selectivity FAP-1” value (FAP-1; over SHP2) was greater than 105 and the IC50 (FAP-1; pNPP 0.5 mM) was greater than 10 µM. For the same compound, the “Fold selectivity HePTP” value (HePTP; over SHP2) was greater than 105, the IC50 (HePTP; pNPP 6 mM) was greater than 10 µM and the “Fold selectivity LMW-PTP” value (LMW-PTP; over SHP2) was greater than 105. For the same compound, the IC50 (LMW-PTP; pNPP 2 mM) was greater than 10 µM, the “Fold selectivity LYP” value (LYP; over SHP2) was greater than 105 and the IC50 (LYP; pNPP 5 mM) was greater than 10 µM. The “Fold selectivity Laforin” value (Laforin; over SHP2) was greater than 105, the IC50 (Laforin; pNPP 4 mM) was greater than 10 µM and the “Fold selectivity PTP-MEG2” value (PTP-MEG2; over SHP2) was greater than 105. For the same compound, the IC50 (PTP-MEG2; pNPP 6 mM) was greater than 10 µM, the “Fold selectivity PTP-α” value (PTP-α; over SHP2) was greater than 105 and the IC50 (PTP-α; pNPP 2 mM) was greater than 10 µM. For the same compound, the “Fold selectivity PTP1B” value (PTP1B; over SHP2) was greater than 105, the IC50 (PTP1B; pNPP 2 mM) was greater than 10 µM and the “Fold selectivity SHP1” value (SHP1; over SHP2) was greater than 105. The IC50 (SHP1; pNPP 3 mM) was greater than 10 µM, the “Fold selectivity STEP” value (STEP; over SHP2) was greater than 105 and the IC50 (STEP; pNPP 2 mM) was greater than 10 µM. For the same compound, the “Fold selectivity TC-PTP” value (TC-PTP; over SHP2) was greater than 105, the IC50 (TC-PTP; pNPP 2 mM) was greater than 10 µM and the “Fold selectivity VHR” value (VHR; over SHP2) was greater than 105. The IC50 (VHR; pNPP 5 mM) was greater than 10 µM, the “effect on tumor burden” value (KYSE-520 xenograft; 25 mg/kg daily IP) was “decrease in tumor burden” and the “effect on tumor burden” value (KYSE-520 xenograft; 50 mg/kg daily IP) was “nearly complete tumor regression”.
